# Data taken from patent US5559232A, “Carboxamides” (Hoffmann-La Roche Inc., priority 1993, dated 1996).
# Experiments:
# [1] = target: human thrombin (Homo sapiens, UniProt P00734); experiment: inhibition of the amidolytic activity of thrombin (chromogenic substrate S-2238); format: biochemical; settings: for Ki: human thrombin 0.5 nM, substrate S-2238, pH 7.8, room temperature; for q (ratio of the inhibition of trypsin to the inhibition of thrombin): specificity: Ki trypsin / Ki thrombin
# Experimental: A differential inhibition of thrombin and other serine proteases by the above compounds is desirable in order to obtain compounds having as high a specificity as possible and at the same time to avoid possible side-effects.
# Specific chromogenic peptide substrates can be used to determine the inhibition of the catalytic activity of the above proteases. The inhibition of the amidolytic activity of thrombin and trypsin by the above guanidines was determined as described hereinafter.
# The measurements were carried out on microtitre plates at room temperature. For this, in each well of the plate 150 μl of buffer (50 mM Tris, 100 mM NaCl, 0.1% polyethylene glycol; pH 7.8) were mixed with 50 μl of the inhibitor dissolved in DMSO and diluted in the buffer, and 25 μl of human thrombin (0.5 nM final conc.) were added. After incubation for 10 minutes the reaction was started by the addition of chromogenic substrate S-2238 (H-D-Phe-Pip-Arg-paranitroaniline from Kabivitrum; 10 or 50 μm final conc.) and the hydrolysis of the substrate was followed spectrophotometrically on a kinetic microtiter plate reader for 5 minutes. After graphical presentation of the inhibition curves the Ki values were determined according to the method described in Blochem. J. 55, 1955, 170-171.
# [2] = target: trypsin; experiment: inhibition of the amidolytic activity of trypsin (chromogenic substrate S-2251); format: biochemical; settings: substrate S-2251, 200 and 750 μM, otherwise analogous to thrombin
smiles,measurement,setting,value
"CCOC(=O)CN(C(=O)[C@H](CC(=O)NC[C@@H]1CCCN(C(=N)N)C1)NC(=O)OCc1ccccc1)C1CC1 [Example 1, ethyl [[(S)-3-[(S)-1-(amino-imino-methyl)-piperidin-3-ylmethylcarbamoyl]-2-benzyloxycarbonylamino-propionyl]-cyclopropyl-amino]-acetate]",Ki,[1],1.2 µM
same,q (ratio of the inhibition of trypsin to the inhibition of thrombin),[1],58
same,Ki,[2],70 µM
"CCOC(=O)CCN(C(=O)[C@H](CC(=O)NC[C@@H]1CCCN(C(=N)N)C1)NC(=O)OCc1ccccc1)C1CC1 [Example 2a, Ethyl 3-[[(S)-3-[(S)-1-(amino-imino-methyl)-piperidin-3-ylmethylcarbamoyl]-2-benzyloxycarbonylamino-propionyl]-cyclopropylamino]-propionate]",Ki,[1],0.017 µM
same,q (ratio of the inhibition of trypsin to the inhibition of thrombin),[1],1706
same,Ki,[2],29 µM
"CCCCN(CC(=O)OCC)C(=O)[C@H](CC(=O)NC[C@@H]1CCCN(C(=N)N)C1)NC(=O)OCc1ccccc1 [Example 2b, ethyl [[(S)-3-[(S)-1-(amino-imino-methyl)-piperidin-3-ylmethylcarbamoyl]-2-benzyloxycarbonylamino-propionyl]-butyl-amino]acetate]",Ki,[1],0.61 µM
same,q (ratio of the inhibition of trypsin to the inhibition of thrombin),[1],92
same,Ki,[2],56 µM
"CCCCN(CCC(=O)OCC)C(=O)[C@H](CC(=O)NC[C@@H]1CCCN(C(=N)N)C1)NC(=O)OCc1ccccc1 [Example 2c, ethyl 3-[[(S)-3-[(S)-1-(amino-imino-methyl)-piperidin-3-ylmethylcarbamoyl]-2-benzyloxycarbonylamino-propionyl]-butylamino]-propionate]",Ki,[1],0.077 µM
same,q (ratio of the inhibition of trypsin to the inhibition of thrombin),[1],390
same,Ki,[2],30 µM
"N=C(N)N1CCC[C@@H](CNC(=O)C[C@H](NC(=O)OCc2ccccc2)C(=O)N(CC(=O)O)C2CC2)C1 [Example 3, [[(S)-3-[(S)-1-(amino-imino-methyl)-piperidin-3-ylmethylcarbamoyl]-2-benzyloxycarbonylamino-propionyl]-cyclopropylamino]-acetic acid]",Ki,[1],0.012 µM
same,q (ratio of the inhibition of trypsin to the inhibition of thrombin),[1],1583
same,Ki,[2],19 µM
"N=C(N)N1CCC[C@@H](CNC(=O)C[C@H](NC(=O)OCc2ccccc2)C(=O)N(CCC(=O)O)C2CC2)C1 [Example 4a, 3-[[(S)-3-[(S)-1-(Amino-imino-methyl)-piperidin-3-ylmethylcarbamoyl]-2-benzyloxycarbonylamino-propionyl]-cyclopropylamino]-propionic acid]",Ki,[1],0.079 µM
same,q (ratio of the inhibition of trypsin to the inhibition of thrombin),[1],1051
same,Ki,[2],83 µM
"CCCCN(CC(=O)O)C(=O)[C@H](CC(=O)NC[C@@H]1CCCN(C(=N)N)C1)NC(=O)OCc1ccccc1 [Example 4b, [[(S)-3-[(S)-1-(amino-imino-methyl)-piperidin-3-ylmethylcarbamoyl]-2-benzyloxycarbonylamino-propionyl]-butyl-amino]-acetic acid]",Ki,[1],0.064 µM
same,q (ratio of the inhibition of trypsin to the inhibition of thrombin),[1],438
same,Ki,[2],28 µM
"CCCCN(CCC(=O)O)C(=O)[C@H](CC(=O)NC[C@@H]1CCCN(C(=N)N)C1)NC(=O)OCc1ccccc1 [Example 4c, 3-[[(S)-3-[(S)-1-(amino-imino-methyl)-piperidin-3-ylmethylcarbamoyl]-2-benzyloxycarbonylamino-propionyl]-butyl-amino]propionic acid]",Ki,[1],0.3 µM
same,q (ratio of the inhibition of trypsin to the inhibition of thrombin),[1],333
same,Ki,[2],100 µM
"CCOC(=O)CN(C(=O)[C@H](CC(=O)NCC1CN(C(=N)N)CCO1)NC(=O)OCc1ccccc1)C1CC1 (stereo partly drawn) [Example 5a, ethyl [[(S)-3-[4-(amino-imino-methyl)-morpholin-2-ylmethylcarbamoyl]-2-benzyloxycarbonylaminopropionyl]-cyclopropyl-amino]-acetate]",Ki,[1],8.9 µM
same,q (ratio of the inhibition of trypsin to the inhibition of thrombin),[1],26
same,Ki,[2],231 µM
"CCCCN(CC(=O)OCC)C(=O)[C@H](CC(=O)NCC1CN(C(=N)N)CCO1)NC(=O)OCc1ccccc1 (stereo partly drawn) [Example 5b, ethyl [[(S)-3-[4-(amino-imino-methyl)-morpholin-2-ylmethylcarbamoyl]-2-benzyloxycarbonylaminopropionyl]-butyl-amino]-acetate]",Ki,[1],0.03 µM
same,q (ratio of the inhibition of trypsin to the inhibition of thrombin),[1],5000
same,Ki,[2],150 µM
"CCOC(=O)CCN(C(=O)[C@H](CC(=O)NCC1CN(C(=N)N)CCO1)NC(=O)OCc1ccccc1)C1CC1 (stereo partly drawn) [Example 5c, ethyl 3-[[(S)-3-[4-(amino-imino-methyl)-morpholin-2-ylmethylcarbamoyl]-2-benzyloxycarbonylamino-propionyl]-cyclopropyl-amino]-propionate]",Ki,[1],0.054 µM
same,q (ratio of the inhibition of trypsin to the inhibition of thrombin),[1],537
same,Ki,[2],29 µM
"CCCCN(CCC(=O)OCC)C(=O)[C@H](CC(=O)NCC1CN(C(=N)N)CCO1)NC(=O)OCc1ccccc1 (stereo partly drawn) [Example 5d, ethyl 3-[[(S)-3-[4-(amino-imino-methyl)-morpholin-2-ylmethylcarbamoyl]-2-benzyloxycarbonylaminopropionyl]-butyl-amino]-propionate]",Ki,[1],0.13 µM
same,q (ratio of the inhibition of trypsin to the inhibition of thrombin),[1],92
same,Ki,[2],12 µM
N=C(N)N1CCOC(CNC(=O)C[C@H](NC(=O)OCc2ccccc2)C(=O)N(CC(=O)O)C2CC2)C1 (stereo partly drawn) [Example 6a],Ki,[1],0.45 µM
same,q (ratio of the inhibition of trypsin to the inhibition of thrombin),[1],311
"CCCCN(CC(=O)O)C(=O)[C@H](CC(=O)NCC1CN(C(=N)N)CCO1)NC(=O)OCc1ccccc1 (stereo partly drawn) [Example 6b, [[(S)-3-[4-(amino-imino-methyl)-morpholin-2-ylmethylcarbamoyl]-2-benzyloxycarbonylamino-propionyl]-butyl-amino]-acetic acid]",Ki,[1],0.0035 µM
same,q (ratio of the inhibition of trypsin to the inhibition of thrombin),[1],18571
same,Ki,[2],65 µM
"N=C(N)N1CCOC(CNC(=O)C[C@H](NC(=O)OCc2ccccc2)C(=O)N(CCC(=O)O)C2CC2)C1 (stereo partly drawn) [Example 6c, 3-[[(S)-3-[4-(amino-imino-methyl)-morpholin-2-ylmethylcarbamoyl]-2-benzyloxycarbonylamino-propionyl]-cyclopropyl-amino]propionic acid]",Ki,[1],0.33 µM
same,q (ratio of the inhibition of trypsin to the inhibition of thrombin),[1],279
same,Ki,[2],92 µM
"CCCCN(CCC(=O)O)C(=O)[C@H](CC(=O)NCC1CN(C(=N)N)CCO1)NC(=O)OCc1ccccc1 (stereo partly drawn) [Example 6d, 3-[[(S)-3-[4-(amino-imino-methyl)-morpholin-2-ylmethylcarbamoyl]-2-benzyloxycarbonylamino-propionyl]-butyl-amino]propionic acid]",Ki,[1],0.94 µM
same,q (ratio of the inhibition of trypsin to the inhibition of thrombin),[1],90
same,Ki,[2],85 µM
"CCOC(=O)CN(C(=O)[C@H](CC(=O)NC[C@@H]1CCCN(C(=N)N)C1)NC(=O)OCC1CCCCC1)C1CC1 [Example 7, ethyl [[(S)-3-[(S)-1-(amino-imino-methyl)-piperidin-3-ylmethylcarbamoyl]-2-cyciohexylmethoxycarbonylamino-propionyl]-cyclopropyl-amino]-acetate]",Ki,[1],2 µM
same,q (ratio of the inhibition of trypsin to the inhibition of thrombin),[1],25
same,Ki,[2],50 µM
"N=C(N)N1CCC[C@@H](CNC(=O)C[C@H](NC(=O)OCC2CCCCC2)C(=O)N(CC(=O)O)C2CC2)C1 [Example 8, [[(S)-3-[(S)-1-(Amino-imino-methyl)-piperidin-3-ylmethylcarbamoyl]-2-cyclohexylmethoxycarbonylamino-propionyl]cyclopropyl-amino]-acetic acid]",Ki,[1],0.017 µM
same,q (ratio of the inhibition of trypsin to the inhibition of thrombin),[1],1588
same,Ki,[2],27 µM
"CCOC(=O)CN(C(=O)[C@H](CC(=O)NC[C@@H]1CCCN(C(=N)N)C1)NC(=O)NCc1ccccc1)C1CC1 [Example 9a, ethyl [[(S)-3-[(S)-1-(amino-imino-methyl)-piperidin-3-ylmethylcarbamoyl]-2-(3-benzyi-ureido)-propionyl]-cyclopropylamino]-acetate]",Ki,[1],1.3 µM
same,q (ratio of the inhibition of trypsin to the inhibition of thrombin),[1],73
same,Ki,[2],95 µM
"CCOC(=O)CN(C(=O)[C@H](CC(=O)NC[C@@H]1CCCN(C(=N)N)C1)NC(=O)NCc1ccco1)C1CC1 [Example 9b1, Ethyl [[(S)-3-[(S)-1-(amino-imino-methyl)-piperidin-3-ylmethylcarbamoyl]-2-(3-furan-2-ylmethyl-ureido)-propionyl]-cyclopropyl-amino]-acetate]",Ki,[1],1.5 µM
same,q (ratio of the inhibition of trypsin to the inhibition of thrombin),[1],53
same,Ki,[2],80 µM
"N=C(N)N1CCC[C@@H](CNC(=O)C[C@H](NC(=O)CSc2ncccn2)C(=O)N(CCNC(=O)c2cnccn2)C2CC2)C1 [Example 20, (S)-N4-[(S)-1-(amino-imino-methyl)-piperidin-3-ylmethyl]-N1-cyclopropyl-N1-(2-pyrazin-2-ylcarbonylamino-ethyl)-2-pyrimidin-2-ylsulphanylacetylamino-succinamide]",Ki,[1],0.00086 µM
same,q (ratio of the inhibition of trypsin to the inhibition of thrombin),[1],5233
"N=C(N)N1CCC[C@@H](CNC(=O)C[C@H](NC(=O)COc2ccccc2)C(=O)N(CCNC(=O)c2cnccn2)C2CC2)C1 [Example 21d, N4-[(S)-1-(amino-imino-methyl)-piperidin-3-ylmethyl]N1-cyclopropyl-2-phenoxyacetylamino-N1-(2-pyrazin-2-ylcarbonylamino-ethyl)-succinamide]",Ki,[1],0.0013 µM
same,q (ratio of the inhibition of trypsin to the inhibition of thrombin),[1],19231
